Measurements: patent US20260274892A1, “MACROCYCLIC BROAD SPECTRUM ANTIBIOTICS” (RQx Pharmaceuticals, Inc., priority 2017, published 2026)

Assays:
[1] = test system: Methicillin Resistant Staphylococcus aureus strain USA 200; assay: Minimum inhibitory concentration (MIC), CLSI broth micro-dilution, S. aureus; assay type: cell-based; conditions: MRSA USA 200, cation adjusted Mueller Hinton Broth + 0.002% Tween-80, 35° C., 22 hours
Procedure, shortened: (§1)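 Antibacterial potency is measured as MIC by the CLSI broth dilution method. Bacteria at OD600 0.0005 in Tween-80-supplemented cation-adjusted Mueller Hinton broth face ten twofold compound dilutions for 22 h at 35° C.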

[2] = test system: Escherichia coli ATCC 25922; assay: Minimum inhibitory concentration (MIC), CLSI broth micro-dilution, E. coli; assay type: cell-based
Procedure, shortened: as §1

[3] = Staphylococcus aureus, MRSA / USA200, Table 6
[4] = Escherichia coli, ATCC25922, 22 h, Table 6, cation adjusted Mueller Hinton Broth + 0.002% Tween-80, 35° C.

| SMILES | MIC [1, 3] [µM] | MIC [2, 4] [µM] | further results |
| --- | --- | --- | --- |
| Cc1nc(-c2ccc(CC(C)C)cc2)ccc1C(=O)N[C@@H](CCN)C(=O)N(C)[C@@H]1C(=O)N[C@@H](C)C(=O)N[C@H](C(=O)NCC#N)Cc2ccc(O)c(c2)-c2cc1ccc2O (racemic) [Compound 430, rac-(8S,11S,14S)-N-(cyanomethyl)-3,18-dihydroxy-11-methyl-14-[methyl-[rac-(2S)-4-amino-2-[[6-(4-isobutylphenyl)-2-methyl-pyridine-3-carbonyl]amino]butanoyl]amino]-10,13-dioxo-9,12-diazatricyclo[13.3.1.12,6]icosa-1(18),2(20),3,5,15(19),16-hexaene-8-carboxamide] | 0.15 | 4.7 |  |
| CCCCCc1ccc(-c2ncc(C(=O)N[C@@H](CCN)C(=O)N(C)[C@@H]3C(=O)N[C@@H](C)C(=O)N[C@H](C(=O)NCC#N)Cc4ccc(O)c(c4)-c4cc3ccc4O)c(C)n2)cc1 (racemic) [Compound 432, rac-(8S,11S,14S)-N-(cyanomethyl)-3,18-dihydroxy-11-methyl-14-[methyl-[rac-(2S)-4-amino-2-[[4-methyl-2-(4-pentylphenyl)pyrimidine-5-carbonyl]amino]butanoyl]amino]-10,13-dioxo-9,12-diazatricyclo[13.3.1.12,6]icosa-1(18),2(20),3,5,15(19),16-hexaene-8-carboxamide] | 0.045 | 1.4 |  |
| Cc1nc(-c2cccc(OC(C)C)c2)ncc1C(=O)N[C@@H](CCN)C(=O)N(C)[C@@H]1C(=O)N[C@@H](C)C(=O)N[C@H](C(=O)NCC#N)Cc2ccc(OCCN)c(c2)-c2cc1ccc2OCCN (racemic) [Compound 251, rac-(8S,11S,14S)-3,18-bis(2-aminoethoxy)-N-(cyanomethyl)-11-methyl-14-[methyl-[rac-(2S)-4-amino-2-[[2-(3-isopropoxyphenyl)-4-methyl-pyrimidine-5-carbonyl]amino]butanoyl]amino]-10,13-dioxo-9,12-diazatricyclo[13.3.1.12,6]icosa-1(18),2(20),3,5,15(19),16-hexaene-8-carboxamide] | 0.067 | 1.1 |  |
| CCCCCCCCc1ccc(C(=O)N[C@@H](CCC(=O)NCCO)C(=O)N(C)[C@@H]2C(=O)N[C@@H](C)C(=O)N[C@H](C(=O)NCC#N)Cc3ccc(OCCN)c(c3)-c3cc2ccc3OCCN)c(C)c1 (racemic) [Compound 446, rac-(2S)-N′-(2-hydroxyethyl)-N-methyl-2-[(2-methyl-4-octyl-benzoyl)amino]-N-[rac-(7S,10S,13S)-3,18-bis(2-aminoethoxy)-13-(cyanomethylcarbamoyl)-10-methyl-8,11-dioxo-9,12-diazatricyclo[13.3.1.12,6]icosa-1(19),2,4,6(20),15,17-hexaen-7-yl]pentanediamide] | 0.032 | 4.1 |  |
| Cc1nc(-c2ccc(C(C)(C)C)cc2)nc(C)c1C(=O)N[C@@H](C)C(=O)N[C@@H](CCN)C(=O)N(C)[C@@H]1C(=O)N[C@@H](C)C(=O)N[C@H](C(=O)NCC#N)Cc2ccc(OCCN)c(c2)-c2cc1ccc2OCCN (racemic) [Compound 464, rac-(8S,11S,14S)-3,18-bis(2-aminoethoxy)-N-(cyanomethyl)-11-methyl-14-[methyl-[rac-(2S)-4-amino-2-[[rac-(2S)-2-[[2-(4-tert-butylphenyl)-4,6-dimethyl-pyrimidine-5-carbonyl]amino]propanoyl]amino]butanoyl]amino]-10,13-dioxo-9,12-diazatricyclo[13.3.1.12,6]icosa-1(18),2(20),3,5,15(19),16-hexaene-8-carboxamide] | 0.063 | 4 |  |
| CCC1(Oc2ccc(-c3nc(C)c(C(=O)N[C@@H](CCN)C(=O)N(C)[C@@H]4C(=O)N[C@@H](C)C(=O)N[C@H](C(=O)O)Cc5ccc(OCCN)c(c5)-c5cc4ccc5OCCN)c(C)n3)cc2)CC1 (racemic) [Compound 639, rac-(8S,11S,14S)-3,18-bis(2-aminoethoxy)-11-methyl-14-[methyl-[rac-(2S)-4-amino-2-[[2-[4-(1-ethylcyclopropoxy)phenyl]-4,6-dimethyl-pyrimidine-5-carbonyl]amino]butanoyl]amino]-10,13-dioxo-9,12-diazatricyclo [13.3.1.12,6]icosa-1(18),2(20),3,5,15(19), 16-hexaene-8-carboxylic acid] |  |  | MIC ([1]; Staphylococcus aureus, MRSA / USA200, Table 8): 0.75 µM; MIC ([2]; Escherichia coli, ATCC25922, 22 h, Table 8, cation adjusted Mueller Hinton Broth + 0.002% Tween-80, 35° C.): 0.38 µM |
| Cc1nc(C#CC(C)C)ncc1C(=O)N[C@@H](CCN)C(=O)N(C)[C@@H]1C(=O)N[C@@H](C)C(=O)N[C@H](C(=O)NCC#N)Cc2ccc(OCCN)c(c2)-c2cc1ccc2OCCN (racemic) [Compound 229, rac-(8S,11S,14S)-3,18-bis(2-aminoethoxy)-N-(cyanomethyl)-11-methyl-14-[methyl-[rac-(2S)-4-amino-2-[[4-methyl-2-(3-methylbut-l-ynyl)pyrimidine-5-carbonyl]amino]butanoyl]amino]-10,13-dioxo-9,12-diazatricyclo[13.3.1.12,6]icosa-1(18),2(20),3,5,15(19),16-hexaene-8-carboxamide] |  |  | MIC ([1]; Table 6): 0.57 µM; MIC ([2]; Table 6, cation adjusted Mueller Hinton Broth + 0.002% Tween-80, 35° C., 22 hours): 4.6 µM |
| Cc1nc(-c2ccc(N3CCC(F)(F)CC3)cc2)nc(C)c1C(=O)N[C@@H](CCN)C(=O)N(C)[C@@H]1C(=O)N[C@@H](C)C(=O)N[C@H](C(=O)NCC#N)Cc2ccc(OCCN)c(c2)-c2cc1ccc2OCCN (racemic) [Compound 322, rac-(8S,11S,14S)-3,18-bis(2-aminoethoxy)-N-(cyanomethyl)-11-methyl-14-[methyl-[rac-(2S)-4-amino-2-[[2-[4-(4,4-difluoro-1-piperidyl)phenyl]-4,6-dimethyl-pyrimidine-5-carbonyl]amino]butanoyl]amino]-10,13-dioxo-9,12-diazatricyclo[13.3.1.12,6]icosa-1(18),2(20),3,5,15(19),16-hexaene-8-carboxamide] | 0.15 | 0.6 |  |

More lines, main results first:

| MIC [1, 3] [µM] | MIC [2, 4] [µM] | SMILES | further results |
| --- | --- | --- | --- |
| 0.023 | 0.38 | C[C@@H]1NC(=O)[C@@H](N(C)C(=O)[C@H](CCN)NC(=O)c2ccc(-c3ccc(C(C)(C)C)cc3)cc2N)c2ccc(OCCN)c(c2)-c2cc(ccc2OCCN)C[C@@H](C(=O)NCC#N)NC1=O (racemic) [Compound 372, rac-(8S,11S,14S)-3,18-bis(2-aminoethoxy)-N-(cyanomethyl)-11-methyl-14-[methyl-[rac-(2S)-4-amino-2-[[2-amino-4-(4-tert-butylphenyl)benzoyl]amino]butanoyl]amino]-10,13-dioxo-9,12-diazatricyclo[13.3.1.12,6]icosa-1(18),2(20),3,5,15(19),16-hexaene-8-carboxamide] |  |
| 0.031 | 0.19 | Cc1nc(-c2ccc(C(C)(C)C)cc2)nc(Cl)c1C(=O)N[C@@H](CCN)C(=O)N(C)[C@@H]1C(=O)N[C@@H](C)C(=O)N[C@H](C(=O)NCC#N)Cc2ccc(OCCN)c(c2)-c2cc1ccc2OCCN (racemic) [Compound 421, rac-(8S,11S,14S)-3,18-bis(2-aminoethoxy)-N-(cyanomethyl)-11-methyl-14-[methyl-[rac-(2S)-4-amino-2-[[2-(4-tert-butylphenyl)-4-chloro-6-methyl-pyrimidine-5-carbonyl]amino]butanoyl]amino]-10,13-dioxo-9,12-diazatricyclo[13.3.1.12,6]icosa-1(18),2(20),3,5,15(19),16-hexaene-8-carboxamide] |  |
| 0.016 | 0.25 | C[C@@H]1NC(=O)[C@@H](N(C)C(=O)[C@H](CCN)NC(=O)c2ccc(Oc3ccc(C(C)(C)C)cc3)cc2Cl)c2ccc(OCCN)c(c2)-c2cc(ccc2OCCN)C[C@@H](C(=O)NCC#N)NC1=O (racemic) [Compound 376, rac-(8S,11S,14S)-3,18-bis(2-aminoethoxy)-N-(cyanomethyl)-11-methyl-14-[methyl-[rac-(2S)-4-amino-2-[[4-(4-tert-butylphenoxy)-2-chloro-benzoyl]amino]butanoyl]amino]-10,13-dioxo-9,12-diazatricyclo[13.3.1.12,6]icosa-1(18),2(20),3,5,15(19),16-hexaene-8-carboxamide] |  |
| 0.0078 | 0.094 | CCC/C=C/c1ccc(-c2nc(C)c(C(=O)N[C@@H](CCN)C(=O)N(C)[C@@H]3C(=O)N[C@@H](C)C(=O)N[C@H](C(=O)NCC#N)Cc4ccc(OCCN)c(c4)-c4cc3ccc4OCCN)c(C)n2)cc1 (racemic) [Compound 278, rac-(8S,11S,14S)-3,18-bis(2-aminoethoxy)-N-(cyanomethyl)-11-methyl-14-[methyl-[rac-(2S)-4-amino-2-[[4,6-dimethyl-2-[4-[rac-(E)-pent-1-enyl]phenyl]pyrimidine-5-carbonyl]amino]butanoyl]amino]-10,13-dioxo-9,12-diazatricyclo[13.3.1.12,6]icosa-1(18),2(20),3,5,15(19),16-hexaene-8-carboxamide] |  |
| 0.023 | 0.25 | Cc1nc(-c2ccc(C(C)(C)C)cc2)c([N+](=O)[O-])cc1C(=O)N[C@@H](CCN)C(=O)N(C)[C@@H]1C(=O)N[C@@H](C)C(=O)N[C@H](C(=O)NCC#N)Cc2ccc(OCCN)c(c2)-c2cc1ccc2OCCN (racemic) [Compound 406, rac-(8S,11S,14S)-3,18-bis(2-aminoethoxy)-N-(cyanomethyl)-11-methyl-14-[methyl-[rac-(2S)-4-amino-2-[[6-(4-tert-butylphenyl)-2-methyl-5-nitro-pyridine-3-carbonyl]amino]butanoyl]amino]-10,13-dioxo-9,12-diazatricyclo[13.3.1.12,6]icosa-1(18),2(20),3,5,15(19),16-hexaene-8-carboxamide] |  |
